Results: patent US20170360805A1, “MOTOR-ASSOCIATED NEURODEGENERATIVE DISEASE AND METHODS OF TREATMENT” (priority 2016, published 2017)

Columns and labels:
[1] = system: primary rat cortical neurons; test: Glutamate excitotoxicity model, MTT cell viability, primary rat cortical neurons; assay type: cell-based; settings: 24 hours, 0.01-10 μM, FIG. 7B
Procedure: (§1) FIG. 7A-FIG. 7B illustrate the effects of 15d-PGJ2 at four different concentrations (0.01, 0.1, 1, and 10 μM) on glutamate induced neurotoxicity in NSC-34 cells (left-FIG. 7A) and primary rat cortical neurons (right-FIG. 7B). Cell viability was determined by the MTT assay. Data are shown as mean+SEM (n=6 or 12) as percentage of vehicle control (VC). Statistical significance is indicated by *<0.05 and **<0.01 as determined by One-Way ANOVA followed by Dunnett's Multiple Comparison Test, in comparison to glutamate lesion (L or Glu).
(§2) Primary cortical neurons were prepared from time mated Sprague Dawley rats. Animals were sacrificed and embryos were dissected in Calcium and Magnesium free Hanks Balanced Salt Solution (CMF-HBSS) containing 15 mM HEPES and 10 mM NaHCO3, pH 7.2. Embryos were decapitated, skin and skull gently removed and cortical hemispheres were separated. […] Cells were counted in a hemacytometer and 4×10^4 cells per well were seeded on poly-D-lysine pre-coated 96-well plates. […]
Viability of cultures was determined by the MTT assay using a plate-reader (570 nm). […] Optical density was measured with a plate-reader at wavelength 570 nm. Cell survival rate was expressed as optical density (OD). Values were calculated as percent of control values (vehicle control). […]

NSC-34 cells = test: Glutamate excitotoxicity model, MTT cell viability, NSC-34 cells; assay type: cell-based, mouse; settings: 24 hours, 0.01-10 μM, FIG. 7A
Procedure: as §1
Viability of cultures was determined by the MTT assay using a plate-reader (570 nm). This assay allows the measurement of the mitochondrial dehydrogenase activity which reduces yellow MTT to dark blue formazan crystals. Since this reaction was catalyzed in living cells, this assay was used for the determination of cell viability. MTT solution was added to each well in a final concentration of 0.5 mg/ml. After 2 hours the MTT containing medium was aspired. Cells were lysed in 3% SDS and the formazan crystals were dissolved in isopropanol/HCl. Optical density was measured with a plate-reader at wavelength 570 nm. Cell survival rate was expressed as optical density (OD). Values were calculated as percent of control values (vehicle control).
15d-PGJ2 was tested in a glutamate excitotoxicity model, a model of ALS. […]

M3 network genes = test: Validation of M3 network activation by RNA sequencing; assay type: cell-based; settings: 1 μM, primary rat cortical neurons, no glutamate lesion, FIG. 5
Procedure: Bioinformatics predictions of M3 network activation from isoflupredone was validated in naïve neuronal cells (primary rat cortical neurons).
In parallel, 5 different test items and 2 reference items at 1 concentration each were applied to primary rat cortical neurons from […] of Sprague Dawley rats. The compounds were incubated for 8 days. […] Cell viability was determined by MTT and RNA was isolated. A number of ≧3 technical replicates were used.
Test item 1: isoflupredone (1 micromolar)
as §2
Messenger RNA was extracted from the cells and sequencing libraries were prepared using the TruSeq kit and poly-A selection. The resulting libraries were sequenced at a depth of 30 million reads per sample using single-ended 75 bp reads.

[2] = system: TDP43 stress granule formation of U2OS cells expressing GFP-labeled human TDP43; test: TDP43 stress granule assay (arsenite challenge, fluorescence imaging); assay type: cell-based; settings: Example 2, FIG. 4; 0.01, 0.1, 1 and 10 μM, 24 h pre-incubation, sodium arsenite 250 μM 120 min; Student's t Test vs arsenite control

CCCCC/C=C\C=C1\C(=O)C=CC1C/C=C\CCCC(=O)O (centres unmarked) [15d-PGJ2, 15-Deoxy-Δ12,14-prostaglandin J2]
effect on glutamate induced neurotoxicity (cell viability, MTT) [1]: neuroprotective effect
effect on glutamate induced neurotoxicity (cell viability, MTT) (NSC-34 cells): neuroprotective effect

C[C@]12C=CC(=O)C=C1CC[C@H]1[C@@H]3CC[C@](O)(C(=O)CO)[C@@]3(C)C[C@H](O)[C@@]12F [isoflupredone, (11β)-9-Fluoro-11,17,21-trihydroxypregna-1,4-diene-3,20-dione]
activation of M3 network genes (pattern of activation) (M3 network genes): largely up-regulation
aggregation of TDP43 compared to the negative control (mean number of fluorescent aggregates per cell) [2]: statistically significant decrease

CC(=O)[C@H]1CC[C@H]2[C@@H]3C[C@H](C)C4=CC(=O)CC[C@]4(C)[C@H]3[C@@H](O)C[C@]12C [medrysone]
aggregation of TDP43 compared to the negative control (mean number of fluorescent aggregates per cell) [2]: did not show a statistically significant effect
